Measurements as given in ChEMBL document CHEMBL3046091, “Synthesis and antimicrobial activities of 2-azetidinyl-4-quinazolinone derivatives of diclofenac analogue” (2011).

How the values were obtained:
Type in all cases: functional
Pseudomonas aeruginosa [1] = assay: Antibacterial activity against Pseudomonas aeruginosa ATCC 9027 at 50 ug/ml by cup-plate method; details: read-out: IZ
Bacillus subtilis [2] = assay: Antibacterial activity against Bacillus subtilis ATCC 6633 at 50 to 100 ug/ml by cup-plate method
Staphylococcus aureus [3] = assay: Antibacterial activity against Staphylococcus aureus ATCC 9144 at 50 ug/ml by cup-plate method; details: read-out: IZ
Candida albicans [4] = assay: Antifungal activity against Candida albicans ATCC 10231 at 100 ug/ml by cup-plate method; details: read-out: IZ
Pseudomonas aeruginosa [5] = assay: Antibacterial activity against Pseudomonas aeruginosa ATCC 9027 at 100 ug/ml by cup-plate method; details: read-out: IZ
Escherichia coli [6] = assay: Antibacterial activity against Escherichia coli ATCC 25922 at 100 ug/ml by cup-plate method; details: read-out: IZ
Escherichia coli [7] = assay: Antibacterial activity against Escherichia coli ATCC 25922 at 50 ug/ml by cup-plate method; details: read-out: IZ
Bacillus subtilis [8] = assay: Antibacterial activity against Bacillus subtilis ATCC 6633 at 50 ug/ml by cup-plate method; details: read-out: IZ
Staphylococcus aureus [9] = assay: Antibacterial activity against Staphylococcus aureus ATCC 9144 at 100 ug/ml by cup-plate method; details: read-out: IZ
Bacillus subtilis [10] = assay: Antibacterial activity against Bacillus subtilis ATCC 6633 at 100 ug/ml by cup-plate method; details: read-out: IZ
Pseudomonas aeruginosa [11] = assay: Antibacterial activity against Pseudomonas aeruginosa ATCC 9027 at 50 to 100 ug/ml by cup-plate method
Staphylococcus aureus [12] = assay: Antibacterial activity against Staphylococcus aureus ATCC 9144 at 50 to 100 ug/ml by cup-plate method
Candida albicans [13] = assay: Antifungal activity against Candida albicans ATCC 10231 at 50 ug/ml by cup-plate method; details: read-out: IZ
Escherichia coli [14] = assay: Antibacterial activity against Escherichia coli ATCC 25922 at 50 to 100 ug/ml by cup-plate method

Compound	zone of inhibition at 50 µg/mL (Pseudomonas aeruginosa [1]) [mm]	Activity (Bacillus subtilis [2]) [%]	zone of inhibition at 50 µg/mL (Staphylococcus aureus [3]) [mm]	zone of inhibition at 100 µg/mL (Candida albicans [4]) [mm]	zone of inhibition at 100 µg/mL (Pseudomonas aeruginosa [5]) [mm]	zone of inhibition at 100 µg/mL (Escherichia coli [6]) [mm]	zone of inhibition at 50 µg/mL (Escherichia coli [7]) [mm]	zone of inhibition at 50 µg/mL (Bacillus subtilis [8]) [mm]	zone of inhibition at 100 µg/mL (Staphylococcus aureus [9]) [mm]	zone of inhibition at 100 µg/mL (Bacillus subtilis [10]) [mm]	Activity (Pseudomonas aeruginosa [11]) [%]	Activity (Staphylococcus aureus [12]) [%]	zone of inhibition at 50 µg/mL (Candida albicans [13]) [mm]	Activity (Escherichia coli [14]) [%]
O=c1c2cc(Br)ccc2nc(Cc2ccccc2Nc2c(Cl)cccc2Cl)n1-c1ccc(/N=C/c2ccccc2[N+](=O)[O-])cc1	2	36	2	2	4	4	2	3	3	5	35.33	28.43	1	32.65
CC1(C)S[C@@H]2[C@H](NC(=O)Cc3ccccc3)C(=O)N2[C@H]1C(=O)O [PENICILLIN G]	6		6		12	14	7	7	12	14				
O=C1C(Cl)C(c2ccccc2[N+](=O)[O-])N1c1ccc(-n2c(Cc3ccccc3Nc3c(Cl)cccc3Cl)nc3ccc(Br)cc3c2=O)cc1 (stereo unspecified)	3	42.68	2	2	6	5	3	3	4	6	46.93	36.75	1	37.56
O=c1c2cc(Br)ccc2nc(Cc2ccccc2Nc2c(Cl)cccc2Cl)n1-c1ccc(/N=C/c2ccc(Cl)cc2)cc1	3	59.79	4	4	6	7	5	5	6	9	46.93	50.88	2	49.68
CN(C)c1ccc(C2C(Cl)C(=O)N2c2ccc(-n3c(Cc4ccccc4Nc4c(Cl)cccc4Cl)nc4ccc(Br)cc4c3=O)cc2)cc1 (stereo unspecified)	0	0	0	1	0	0	0	0	0	0	0	0	0	0
O=C1C(Cl)C(c2ccc(O)cc2)N1c1ccc(-n2c(Cc3ccccc3Nc3c(Cl)cccc3Cl)nc3ccc(Br)cc3c2=O)cc1 (stereo unspecified)	4	35.08	3	0	7	5	2	3	5	5	58.33	44.44	0	37.89
O=C1C(Cl)C(c2ccccc2Cl)N1c1ccc(-n2c(Cc3ccccc3Nc3c(Cl)cccc3Cl)nc3ccc(Br)cc3c2=O)cc1 (stereo unspecified)	4	41.48	4	3	7	6	3	3	8	6	58.33	65.76	2	44.56
O=c1c2cc(Br)ccc2nc(Cc2ccccc2Nc2c(Cl)cccc2Cl)n1-c1ccc(/N=C/c2ccc(O)cc2)cc1	2	30.5	3	1	5	4	2	2	4	4	44.55	34.85	0	31.5
COc1ccc(/C=N/c2ccc(-n3c(Cc4ccccc4Nc4c(Cl)cccc4Cl)nc4ccc(Br)cc4c3=O)cc2)c(O)c1	2	47.81	4	0	4	6	4	4	6	7	38.83	50	0	42.86
COc1cc(C2C(Cl)C(=O)N2c2ccc(-n3c(Cc4ccccc4Nc4c(Cl)cccc4Cl)nc4ccc(Br)cc4c3=O)cc2)cc(OC)c1OC (stereo unspecified)	4	46.48	4	2	7	7	3	5	7	7	58.33	58.33	1	50
COc1ccc(/C=N/c2ccc(-n3c(Cc4ccccc4Nc4c(Cl)cccc4Cl)nc4ccc(Br)cc4c3=O)cc2)cc1	3	63.91	4	3	6	9	5	5	7	9	52.88	53.85	2	64.33
C[C@@H]1[C@H](O)[C@@H](C)/C=C/C=C/C=C/C=C/C=C/C=C/C=C/[C@H](O[C@@H]2O[C@H](C)[C@@H](O)[C@H](N)[C@@H]2O)C[C@@H]2O[C@](O)(C[C@@H](O)C[C@@H](O)[C@H](O)CC[C@@H](O)C[C@@H](O)CC(=O)O[C@H]1C)C[C@H](O)[C@H]2C(=O)O [AMPHOTERICIN B]				9									4	
COc1ccc(C2C(Cl)C(=O)N2c2ccc(-n3c(Cc4ccccc4Nc4c(Cl)cccc4Cl)nc4ccc(Br)cc4c3=O)cc2)c(O)c1 (stereo unspecified)	3	44.69	4	1	6	7	4	4	7	7	50.98	58.33	0	50
O=C1C(Cl)C(c2ccccc2O)N1c1ccc(-n2c(Cc3ccccc3Nc3c(Cl)cccc3Cl)nc3ccc(Br)cc3c2=O)cc1 (stereo unspecified)	4	42.68	3	0	6	6	3	3	6	6	50	50.98	0	43.53
CCN(CC)c1ccc(C2C(Cl)C(=O)N2c2ccc(-n3c(Cc4ccccc4Nc4c(Cl)cccc4Cl)nc4ccc(Br)cc4c3=O)cc2)c(O)c1 (stereo unspecified)	0	0	0	0	0	0	0	0	0	0	0	0	0	0
O=c1c2cc(Br)ccc2nc(Cc2ccccc2Nc2c(Cl)cccc2Cl)n1-c1ccc(/N=C/c2ccccc2Cl)cc1	3	42.68	3	2	5	5	3	3	6	6	44.44	50.98	1	37.56
